From PubChem BioAssay (NCI)
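Interpolation was linear, between the two tested concentrations surrounding the appropriate level; five concentrations were tested over 48 hours in 96-well plates. GI50 is the concentration that inhibits growth by half. TGI denotes the concentration required for complete inhibition of growth.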

Tests used:
Test in all cases: NCI anticancer screen, dose series, 48 h
EKVX NSCLC = test system: EKVX NSCLC
HCT-15 colon = test system: HCT-15 colon
HL-60(TB) leukemia = test system: HL-60(TB) leukemia
HS 578T breast = test system: HS 578T breast
MOLT-4 leukemia = test system: MOLT-4 leukemia
NCI/ADR-RES ovarian = test system: NCI/ADR-RES ovarian
PC-3 prostate = test system: PC-3 prostate
CCRF-CEM leukemia = test system: CCRF-CEM leukemia
OVCAR-4 ovarian = test system: OVCAR-4 ovarian
SK-OV-3 ovarian = test system: SK-OV-3 ovarian

Row | Structure (SMILES) | GI50 (EKVX NSCLC) [µM] | TGI (EKVX NSCLC) [µM] | GI50 (HCT-15 colon) [µM] | TGI (HCT-15 colon) [µM] | GI50 (HL-60(TB) leukemia) [µM] | TGI (HL-60(TB) leukemia) [µM] | GI50 (HS 578T breast) [µM] | TGI (HS 578T breast) [µM] | GI50 (MOLT-4 leukemia) [µM] | TGI (MOLT-4 leukemia) [µM] | GI50 (NCI/ADR-RES ovarian) [µM] | TGI (NCI/ADR-RES ovarian) [µM] | GI50 (PC-3 prostate) [µM] | TGI (PC-3 prostate) [µM] | GI50 (CCRF-CEM leukemia) [µM] | TGI (CCRF-CEM leukemia) [µM] | GI50 (OVCAR-4 ovarian) [µM] | TGI (OVCAR-4 ovarian) [µM] | GI50 (SK-OV-3 ovarian) [µM] | TGI (SK-OV-3 ovarian) [µM]
1 | COc1ccc(OC)c(-c2cc(-c3ccc(Cl)cc3)nn2-c2ccc(S(N)(=O)=O)cc2)c1 | 11.9 | 27.5 | 2.84 | 10.7 | 14.3 | > 100 | 21.9 | 63.1 | 3.52 | > 100 | 6.54 | 22.2 | 3.62 | 15.7 |  |  |  |  |  | 
2 | CC([C@H]1CCC2C3CCC4C(=O)C(NC=O)=CC[C@]4(C)C3CC[C@@]21C)N(C)C (stereo partly specified) | 3.01 | 50.7 | 1.42 | 4.26 | 1.86 | 4.95 | 4.6 | 20.8 | 2.55 | 10.2 | 6.8 | 27.2 | 2.51 | 14.5 | 3.24 | 18.7 | 5.12 | 26.6 | 4.03 | 12.9
3 | COc1ccc2c(c1)Cc1cc(N=[N+]([O-])c3ccc4c(c3)Cc3cc(OC)ccc3-4)ccc1-2 |  | > 100 |  | > 100 |  | > 100 |  | > 100 |  | > 100 |  | > 100 |  | > 100 |  | > 100 |  | > 100 |  | > 100
4 | COc1ccc(-n2cc(-c3ccc(Cl)cc3)[nH]c2=S)cc1Cl | 42.8 | > 100 | > 100 | > 100 | > 100 | > 100 | 23.8 | 56.6 | 43 | > 100 | 42.2 | > 100 | 30.7 | > 100 | 60.6 | > 100 | 20.7 | 48.6 | 23.6 | 52.6
5 | O=C1/C(=C/c2ccc(F)cc2)CN(Cc2cn(CCNc3ccnc4cc(Cl)ccc34)nn2)C/C1=C\c1ccc(F)cc1 |  |  | 1.4 | 3.21 | 1.41 | 4.97 | 2.33 | 7.56 | 2.38 | 7.08 | 2.76 | 11.3 | 1.16 | 2.6 | 1.05 | 4.65 | 1.81 | 8.75 | 1.6 | 3.02
6 | Cc1c(Br)cccc1NC(=O)c1sc2nc3c(cc2c1N)CN(Cc1ccccc1)CC3 | 0.359 | > 50 | 0.165 | > 50 | 0.161 | 0.456 | 0.208 | 15.4 | 0.409 | > 50 | 0.136 | 10.5 | 0.204 | 22.4 | 0.182 | > 50 | 0.523 | 8.89 | 0.294 | 22.7
7 | COc1ccc(NC(=O)CC(=O)n2nc(-c3ccccc3)c(N=Nc3ccc(C)cc3)c2-c2ccccc2)cc1 |  | > 51.4 |  | > 100 |  | > 100 |  | 60.7 |  | > 100 |  | > 61 |  | > 57.9 |  | > 100 |  | 53.8 |  | 40
8 | S=c1sc2ccccc2n1CN1CCN(Cc2ccccc2)CC1 |  | > 100 |  | > 100 |  | > 100 |  | > 100 |  | > 100 |  | > 100 |  | > 100 |  | > 100 |  | > 100 |  | > 100
9 | CC(=O)c1c[nH]c2ccc(-c3ccnc(Nc4ccc(NC(=O)c5cccc(F)c5)c(CN5CCOCC5)c4)n3)cc12 | 0.239 | 1.52 | 0.112 |  | 0.242 | 0.928 | 0.124 | 1.02 | 0.262 | > 100 | 0.273 | 4.35 | 0.224 | 2.96 | 0.134 | > 100 | 0.307 | 3.07 | 0.562 | > 100
10 | N#CC1=C(N)Oc2c(sc3c(F)cccc23)C1c1ccc(Cl)cc1 (stereo unspecified) | 4 | 21.7 | 2.75 | 13.1 | 2.69 | 8.3 | 2.63 | 15.5 | 2.93 | 10.5 | 2.09 | 6.68 | 2.72 | 12.9 | 2.99 | 12.1 | 4.21 | 19.6 | 5.16 | 20
11 | COc1ccc(CNCCN2C(=O)c3ccc4c5c(ccc(c35)C2=O)C(=O)N(CCNCc2ccc(OC)cc2)C4=O)cc1 | 0.455 | 1.73 | 0.179 | 0.432 | 0.311 | 0.858 | 1.1 | 4.25 | 0.282 | 0.92 | 0.288 | 1.21 | 0.387 | 1.96 | 0.227 | 3.29 | 0.122 | 0.255 | 1.13 | 2.37
12 | CC(C)n1c2c(c3ccccc3c1=O)C(=O)c1ccccc1-2 |  | > 100 |  | > 100 |  | > 100 |  | > 100 |  | > 100 |  | > 100 |  | > 100 |  | > 100 |  | > 100 |  | > 100
13 | COc1ccc(/C(C#N)=C/c2nc3c(N4CCOCC4)nc(Cl)nc3n2C)cc1OC |  | 2.76 | < 0.01 | 1.62 | < 0.01 | < 0.0112 | < 0.01 | 2.68 | 0.0251 | 2.89 | < 0.01 | < 0.01 | < 0.01 | 1.52 | < 0.01 | 0.146 | < 0.0105 | 1.93 | < 0.01 | 5.52
14 | NC(=O)NC1=NCCC(=O)N1CCc1c[nH]c2ccccc12 |  | 48.6 |  | 73 |  | 42.5 |  | 80.1 |  | 39.1 |  | 52.8 |  | 28.3 |  | 37.9 |  | 52.9 |  | > 100
15 | COC(=O)C(=O)C(C(=O)C(=O)Nc1ccc(Cl)cc1Cl)c1nc2ccc(Cl)cc2[nH]c1=O (stereo unspecified) |  | > 100 |  | > 100 |  | > 100 |  | > 100 |  | > 100 |  | > 100 |  | > 100 |  | > 100 |  | > 100 |  | > 100
16 | O=C1CCc2cc([N+](=O)[O-])ccc2O1 |  | > 100 |  | > 100 |  | > 100 |  | > 100 |  | > 100 |  | > 100 |  | > 100 |  | > 100 |  | > 100 |  | 
17 | CC(=O)NC1=NC(=O)/C(=C/c2ccc(Cl)cc2Cl)N1C |  | 50.7 |  | > 100 |  | 7.37 |  | > 100 |  | 81.4 |  | > 100 |  | > 100 |  | 34.8 |  | > 100 |  | > 100
18 | O=C(O)/C=C/C(=O)Nc1cccc2c1-c1ccccc1C2=O |  | > 100 |  | > 100 |  | 6.9 |  | 47.5 |  | > 100 |  | > 92.1 |  | > 88.9 |  | > 28.3 |  | > 100 |  | > 100
19 | CN1CCN(c2nc(NCCNc3ccnc4cc(Cl)ccc34)c3ccccc3n2)CC1 | 3.86 | 17.3 | 3.02 | 10.8 | 1.74 | 3.5 | 2.74 | 9.58 | 1.63 | 6.36 | 16 | 37 | 2.07 | 14.3 | 0.527 | 4.84 | 2.15 | 6.26 | 3.18 | 11.7
20 | COC1=C(NC(C)=O)C(=O)c2nc3n(c2C1=O)CCC3 |  | 38.9 |  | 53.4 |  | > 30.4 |  | 82.8 |  | > 66.8 |  | 41.1 |  | > 100 |  | 14.1 |  | 30.7 |  | > 100
21 | Cc1cc(CC(O)(C(F)(F)F)C(F)(F)F)cc(CC(O)(C(F)(F)F)C(F)(F)F)n1 |  | 10.8 |  | 12.6 |  | 7.85 |  | 8.23 |  | 13.2 |  | 5.95 |  | 10.3 |  | 12 |  | 12.6 |  | 
22 | O=C(O)CSc1ccn(Cc2ccccc2)c1 |  | > 100 |  | > 100 |  | > 100 |  | > 100 |  | > 100 |  | > 100 |  | > 100 |  | > 100 |  | > 100 |  | > 100
23 | O=C(NCCc1ccccc1)C(c1csc2ccccc12)N(C(=O)CCl)c1ccc(-c2cnco2)cc1 (stereo unspecified) | 0.543 | 2.3 | 0.596 | 1.84 | 0.762 | 2.8 | 1.44 | 7.2 | 0.209 | 0.678 | 0.114 | 1.17 | 0.511 | 1.9 | 0.0229 | 0.0594 | 1.7 | 5.14 | 1.25 | 2.69
24 | COc1ccc(C2CC(c3cccc(Nc4ccnc5cc(Cl)ccc45)c3)=NN2c2ccccc2)cc1 (stereo unspecified) |  |  | 0.335 | 14.7 | 0.282 | 17.5 | 6.79 | 73.2 | 0.432 | 27.6 | 1.51 | 26.4 | 0.453 | 95.3 | 0.546 | 37.9 |  |  | 9.62 | 76.5
25 | CCCCC#Cc1c(I)n(C2OC(CO[Si](C)(C)C(C)(C)C)C3OC(C)(C)OC32)c(=O)[nH]c1=O (stereo unspecified) | 15.3 | 28.7 | 2 | > 100 | 1.52 | 4.14 | 11.7 | 39.6 | 1.77 | 4.34 | 18.1 | 49.7 | 2.8 | 10.4 | 2.64 | 8.04 | 3.84 | 16.1 |  | 
26 | N=C(N)c1ccc(-c2ccc(-c3ccco3)o2)cc1 |  |  | 2.58 | 7.22 | 2.19 | 5.53 | 4.82 | 24.2 | 3.26 | 10.8 | 10.1 | 28.5 | 4.05 | 17 | 3.11 | 15.2 | 6.42 | 24.1 | 9.21 | 21.2
27 | Oc1ccc(Br)cc1CN1CCN(Cc2ccc(Cl)cc2)CC1 |  |  | 16.1 | 51.3 | 22.8 | 66.5 | 28.6 | > 100 | 26.7 | > 100 | 17.2 | > 100 | 23.9 | > 100 | 24.3 | > 100 | 11.8 | 86.3 | 31 | > 100
28 | COc1cc(C2C3=C(COC3=O)N(CCO)c3cc4c(cc32)OCCO4)cc(OC)c1O (stereo unspecified) | 3.5 | > 50 | 11.7 | > 50 | 1.52 | > 13.5 | 1.14 | > 50 | 3.68 | > 50 | > 31.8 | > 50 | 2.17 | > 50 | 1.84 | > 50 | 3.78 | > 50 | 2.29 | > 50
29 | C=CC[n+]1c(/C=C2\Sc3ccccc3N2C)sc(-c2ccccc2)c1-c1ccccc1 | 0.478 | 12.9 | 2.18 | 13.4 | 0.241 | 0.665 | 0.374 | 19.4 | 0.431 | 4.29 | 7.89 | 61.7 | 0.264 | 1.34 | 0.353 | 11.8 | 0.274 | 11.9 | 0.296 | 0.92
30 | CC(C)=CCNc1ncnc2c1ncn2C1OC(COP(=O)(O)O)C(O)C1O (stereo unspecified) |  |  | 2.72 | > 64.1 | 1.94 | 6.33 | 2.67 | 21.8 | 4.22 | > 48.5 | 5.85 | > 100 | 2 | 8.22 | 3.32 | > 100 | 5.01 | 34.3 | 4.77 | > 100
